# Patent US20080187508A1, “Treatment of Golmerular Basement Membrane Disease Involving Matrix Metalloproteinase-12” (BOYS TOWN NATIONAL RESEARCH HOSPITAL, priority 2004, published 2008)
# Entries after “also recorded” stand apart in the source; their conditions may differ. Counter-ions that a name gives are not always drawn.
# Key:
# [1] = system: Alport mice; test: proteinuria by gel electrophoresis of urine of treated Alport mice; assay type: in vivo, mouse; conditions: for proteinuria: Alport mice treated from 4 to 7 weeks of age, MMI-270 50 μg/g I.P.; for progression of proteinuria: Alport mice treated from 6 to 7 weeks of age (advanced disease)
# Protocol: Proteinuria was analyzed by gel electrophoresis. (A) One half microliter of urine from control mice (lane 2), MMI 270-treated normal control mice (lane 3), MMI 270-treated Alport mice (injected […] with 50 μg/g of NMI 270) (lane 4), and untreated Alport mice (lane 5) was fractionated on a 10% PAGE gel, stained with Coomassie blue, and destained. Molecular weight markers are shown in lane 1. […] Urine was collected and analyzed as in (A). Lane 1, 6 week old control; lane 2, 6 week old Alport; lane 3, 7 week old control; lanes 4 and 5, 7 week old Alport; lanes 6 and 7, 7 week old Alport treated with MMI-270 from 6 to 7 weeks of age. Molecular weight markers are shown in lane 1. The Alport mouse model has been described (Cosgrove et al. (1996) Genes Dev. 10, 2981-2992). The control mice used were normal for both collagen α3(IV) alleles, and are a product of double heterozygote crosses for the Alport mutation. The use of animals in this study was performed in accordance with an approved institutional IACUC protocol. Extreme care was taken to minimize pain and discomfort suffered by the mice. MMP inhibitors were administered between 4 and 7 weeks of age. All drugs were freshly prepared prior to administration. BAY 129566 was emulsified in suspension with 0.5% carboxymethyl cellulose and 4 mg given once a day by oral gavage. MMI-270 was solubilized in 0.9% saline and administered by I.P. injection (50 μg/g body weight) once a day. To assess the effect of these two compounds on Alport renal disease progression, Alport mice were administered either MMI 270 or BAY 129566 from 4 to 7 weeks of age. The animals were transcardially perfused with PBS and the kidneys harvested. Cryosections were analyzed by immunofluorescence microscopy to assess for the degree of glomerular and tubulointerstitial damage using antibodies specific for collagen IV α1 and α2 chains, and fibronectin.
# [2] = system: Alport mice; test: transmission electron microscopy of glomerular basement membrane of treated Alport mice; assay type: in vivo, mouse; conditions: Alport mice treated with MMP inhibitor from 4 to 7 weeks of age, electron microscopy
# Protocol: The Alport mouse model has been described (Cosgrove et al. (1996) Genes Dev. 10, 2981-2992). The control mice used were normal for both collagen α3(IV) alleles, and are a product of double heterozygote crosses for the Alport mutation. The use of animals in this study was performed in accordance with an approved institutional IACUC protocol. Extreme care was taken to minimize pain and discomfort suffered by the mice. MMP inhibitors were administered between 4 and 7 weeks of age. All drugs were freshly prepared prior to administration. BAY 129566 was emulsified in suspension with 0.5% carboxymethyl cellulose and 4 mg given once a day by oral gavage. MMI-270 was solubilized in 0.9% saline and administered by I.P. injection (50 μg/g body weight) once a day. Transmission electron microscopy was performed as previously described (Cosgrove et al., 1996, Genes Dev. 10, 2981-2992). Ultrastructural localization studies of type IV collagen were performed essentially as previously described (Bhattacharya et al., 2002). Kidneys from 7-week-old control and Alport mice were fixed by heart perfusion with 2% paraformaldehyde in PBS, and post-fixed in this same solution overnight. Ultrathin (70 nm) sections were reacted for 4 hours at room temperature with goat anti-collagen IV antibodies (Southern Biotechnology, Birmingham, Ala.). After six 10 minute washes in PBS, specimen were reacted for 2 hours at room temperature with 10 nanometers (nm) gold-conjugated anti-rabbit antibodies (Vector Laboratories, Burlingame, Calif.). Grids were washed as before, air-dried, counterstained with uranyl acetate, and examined using transmission electron microscopy. Propagermanium (3-oxygemylpropinic acid polymer, Sanwa Kagaku Kenkyusho Co., Nagoya, Japan) was administered orally (10 milligrams per kilogram (mg/kg) in 1% gelatin) by gavage once daily starting at 5 weeks of age, and kidneys harvested at 7 weeks of age. Three animals per group, Alport mice and control litter mates, gavaged with drug or vehicle only, were analyzed. […] Proteolytic degradation of the GBM in Alport syndrome might underlie the progressive irregular GBM damage and podocyte foot process effacement. Type IV collagen from Alport kidneys is more susceptible to proteolytic degradation in vitro than type IV collagen from healthy kidneys (Kalluri et al. (1997) J. Clin. Invest. 99, 2470-2478, presumably owing to the reduced number of interchain disulfide crosslinks (Gunwar et al. (1998) J. Biol. Chem. 273, 8767-8775).
# [3] = target: T1, MMP-2 (Homo sapiens, UniProt P08253); conditions: hydrochloride monohydrate; cited from earlier work
# T1 sequence (P08253 110-660): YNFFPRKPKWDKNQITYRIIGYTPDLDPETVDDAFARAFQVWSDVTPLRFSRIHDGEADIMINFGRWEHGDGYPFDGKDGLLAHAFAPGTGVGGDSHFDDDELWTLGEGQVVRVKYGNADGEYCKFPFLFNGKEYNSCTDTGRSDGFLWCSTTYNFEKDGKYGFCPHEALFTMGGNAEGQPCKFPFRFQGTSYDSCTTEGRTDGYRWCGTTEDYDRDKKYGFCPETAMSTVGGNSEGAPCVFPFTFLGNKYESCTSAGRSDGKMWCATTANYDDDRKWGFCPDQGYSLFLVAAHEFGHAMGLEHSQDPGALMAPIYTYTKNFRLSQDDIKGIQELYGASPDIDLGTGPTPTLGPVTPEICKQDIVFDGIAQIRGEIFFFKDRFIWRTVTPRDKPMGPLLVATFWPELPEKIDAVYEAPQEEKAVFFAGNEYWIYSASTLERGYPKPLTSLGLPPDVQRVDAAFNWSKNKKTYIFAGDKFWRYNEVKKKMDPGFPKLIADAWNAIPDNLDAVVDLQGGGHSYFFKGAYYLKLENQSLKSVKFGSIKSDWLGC
# [4] = target: MMP-3 (Homo sapiens, UniProt P08254); conditions: hydrochloride monohydrate; cited from earlier work
# MMP-3, sequence (P08254 100-477, species assumed): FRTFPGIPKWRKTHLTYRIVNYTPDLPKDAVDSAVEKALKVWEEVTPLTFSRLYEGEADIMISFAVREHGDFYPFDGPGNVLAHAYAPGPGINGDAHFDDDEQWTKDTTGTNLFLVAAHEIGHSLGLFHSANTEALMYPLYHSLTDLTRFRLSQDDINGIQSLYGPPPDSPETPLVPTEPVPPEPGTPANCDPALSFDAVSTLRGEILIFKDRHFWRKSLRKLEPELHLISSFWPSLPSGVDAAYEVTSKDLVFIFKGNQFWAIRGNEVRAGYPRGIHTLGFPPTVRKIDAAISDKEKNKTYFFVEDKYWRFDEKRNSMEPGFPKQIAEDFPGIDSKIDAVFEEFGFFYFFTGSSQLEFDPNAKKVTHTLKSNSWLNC
# [5] = target: MMP-9 (Homo sapiens, UniProt P14780); conditions: hydrochloride monohydrate; cited from earlier work
# MMP-9, sequence (P14780 94-707, species assumed): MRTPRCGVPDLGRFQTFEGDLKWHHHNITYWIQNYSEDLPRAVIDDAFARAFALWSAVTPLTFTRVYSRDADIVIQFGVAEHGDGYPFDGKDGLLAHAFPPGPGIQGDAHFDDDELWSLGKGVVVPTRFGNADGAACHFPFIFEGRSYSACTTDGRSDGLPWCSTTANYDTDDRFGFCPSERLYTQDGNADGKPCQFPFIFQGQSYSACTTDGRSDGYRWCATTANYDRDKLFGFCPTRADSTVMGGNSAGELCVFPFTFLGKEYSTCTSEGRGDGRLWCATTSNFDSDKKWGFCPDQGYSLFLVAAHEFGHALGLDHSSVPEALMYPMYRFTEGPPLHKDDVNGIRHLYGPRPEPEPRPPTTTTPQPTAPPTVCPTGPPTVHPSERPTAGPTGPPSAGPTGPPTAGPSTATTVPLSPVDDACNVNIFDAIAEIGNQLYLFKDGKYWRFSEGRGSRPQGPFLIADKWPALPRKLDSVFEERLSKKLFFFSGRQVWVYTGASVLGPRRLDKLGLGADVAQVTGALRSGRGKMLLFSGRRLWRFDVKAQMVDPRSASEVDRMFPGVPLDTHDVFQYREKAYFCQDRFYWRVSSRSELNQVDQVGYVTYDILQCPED
# [6] = target: MMP-14 (Homo sapiens, UniProt P50281); conditions: hydrochloride monohydrate; cited from earlier work
# [7] = system: wide range of MMPs; conditions: in vitro; cited from earlier work
# [8] = listed as MMI-270, hydrochloride monohydrate
# [9] = listed as NMI 270, hydrochloride monohydrate
structure (smiles),measurement,setting,value
"COc1ccc(S(=O)(=O)N(Cc2cccnc2)[C@@H](C(=O)NO)C(C)C)cc1 [MMI 270, N-hydroxy-2(R)-[(4-methoxysulfonyl)(3-picolyl)amino]-3-methylbutaneamide hydrochloride monohydrate]",proteinuria,[1]; hydrochloride monohydrate,arrests (and may reverse) progressive loss of glomerular function
same,proteinuria,[1]; [8],dramatic reduction
same,proteinuria,[1]; [9],drastically reduced
same,progression of proteinuria,[1]; hydrochloride monohydrate,arrests the progressive increase in proteinuria; also recorded: arrested
same,progression of proteinuria,[1]; [9],arrested
same,glomerular basement membrane architecture,[2]; hydrochloride monohydrate,near complete restoration of normal glomerular basement membrane architecture; also recorded: prevents or reverses GBM damage
same,glomerular basement membrane architecture,[2]; [8],largely restored GBM ultrastructure and function; also recorded: markedly improved glomerular basement membrane architecture
same,glomerular basement membrane architecture,[2]; [9],markedly improved GBM ultrastructure
same,"MMP inhibitory effect, MMP-2",[3],inhibits
same,"MMP inhibitory effect, MMP-3",[4],inhibits
same,"MMP inhibitory effect, MMP-9",[5],inhibits
same,"MMP inhibitory effect, MMP-14",[6],inhibits
same,concentrations inhibiting activity of a wide range of MMPs,[7],nM concentrations
